# In patent publication US20180002692A1, “Sequence Specific and Organism Specific Antimicrobials and Related Materials and Methods” (priority 2015, published 2018):
# Entries after “also recorded” stand apart in the source; their conditions may differ. Like-named read-outs stand apart in the source and are kept apart here.
# How the values were obtained:
# [1] = system: ampicillin-resistant E. coli; format: cell-based; settings: for growth of drug-resistant E. coli in presence of ampicillin: antisense oligomer plus 300 μg/mL ampicillin
# Description: pAKgfp1 plasmid was obtained from Addgene for TEM-1 β-lactamase resistance gene, bla (43). The plasmid was cloned into chemically competent Zymo DH5a E. coli (Expressys). Untransformed Zymo DH5a was used as a control strain for β-lactamase activity assays. Liquid cultures were grown in 2% LB, incubated at 37° C. and shaken at 225 rpm. Solid cultures were grown on 2% LB broth, 1.5% agar at 37° C. Ampicillin sodium salt (Sigma Aldrich) was used for selection at a concentration of 300 μg/mL for MIC and CFU analysis. Optical density measurements were taken using a Tecan GENios at 562 nm with a bandwidth of 35 nm. All bacterial freezer stocks were stored in 40% glycerol at −80° C.
# [2] = system: β-lactamase; settings: 5 μM α-TSS, 25 μM α-RBS, 25 μM α-YUNR; absence of ampicillin
# Description: Fluorocillin™ Green 495/525 β-lactamase substrate soluble product (Life Technologies) was used at a concentration of 2.2 μM as a β-lactamase substrate and measured using a Tecan GENios microplate reader in black flat bottom 96 well plate at 485/535 nm with a bandwidth of 35 nm. Three biological replicates were grown from colonies for 12 hours liquid media in the presence of the respective antisense agents, diluted 1:10 into liquid media and Fluorocillin green, and monitored in the Tecan GENios for 5 hr at 37° C. measuring every 2 min. The slope of fluorescence measured was used as a measure of β-lactamase activity.
# Using quantitative real-time polymerase chain reaction (qPCR), expression levels of the bla gene in presence of the three antisense agents were measured. Studies were carried out with 5 μM α-TSS, 25 μM α-RBS, and 25 μM α-YUNR in the absence of ampicillin.
# [3] = system: bla mRNA; experiment: bla mRNA expression by qPCR; format: cell-based, E. coli; settings: 5 μM α-TSS, 25 μM α-RBS, 25 μM α-YUNR; absence of ampicillin
# Description: Three biological replicates were used for bla expression analysis. Cultures were pretreated overnight in respective PNA and liquid media in the absence of ampicillin and collected for RNA at 16 hr.
# 50 μL of the respective culture was added to 100 μL of Bacteria RNAprotect (Qiagen) and incubated at room temperature for 5 min. The cells were then pelleted via centrifugation for 3 min at 10,000 rpm, the supernatant removed, and samples were flash frozen in an ethanol dry ice bath and stored at −80° C. Precautions were taken to protect RNA from RNases using RNaseZap (Life Technologies). RNA was extracted from frozen cell pellets using GeneJET RNA purification kit (Thermo Scientific) and 350-600 ng was treated with Turbo DNA-free (Ambion). 50 ng cDNA was synthesized using Maxima Universal First Stand cDNA synthesis kit (Thermo Scientific). 1.5 ng of cDNA was used for qPCR with Maxima SYBR Green qPCR master mix with ROX normalization (Thermo Scientific) using Illumina Eco qPCR system. Transcript levels were analyzed using the ΔCq method with respect to moderately expressed housekeeping gene cysG (43). Transcript levels were further analyzed for the mutant populations using the ΔΔCq method with respect to the no treatment populations.
# [4] = system: ampicillin-resistant E. coli; format: cell-based
# Description: Three biological replicates were selected from colonies and pretreated for 16 hr with respective α-TSS concentration in liquid media. After pretreatment, the cultures were diluted 1:100,000 into liquid media with respective concentration of ampicillin and α-TSS and allowed to grow with shaking at 37° C. for 24 hr. The final OD at 562 nm at 24 hr was used for data analysis.
# Data fitting analysis was performed in Origin Pro 6.1. Data was fit to a sigmoidal/decay Boltzman function.
# The degree of re-sensitization exerted by α-TSS in presence of varying concentrations of ampicillin above and below the MIC determined for α-TSS was then evaluated.
# [5] = system: ampicillin-resistant E. coli; experiment: Emergence of tolerance to α-TSS/ampicillin combination; format: cell-based; settings: 35 cultures
# Description: Ampicillin-resistant cultures were pretreated overnight with 2.5 μM α-TSS and then subjected to selection pressure of 2.5 μM α-TSS and 300 μg/mL of ampicillin for 24 hours. […] Mutant populations 1 and 2 were diluted and re-grown under selection pressure for another 24 hours.
# Changes in expression of a set of key stress response genes was examined to identify the resistance mechanism involved in obtaining resistance to α-TSS. Thirteen representative stress response genes were measured by qPCR (FIG. 5B).
# [6] = system: ampicillin-resistant E. coli; experiment: Colony forming unit analysis with α-TSS and ampicillin; settings: 1 μM α-TSS (below MIC), 300 μg/mL ampicillin
# Description: Cultures were sampled at respective time points and serial dilutions were performed ranging from 10^2-10^10. For ampicillin sensitivity experiment, dilutions were plated on solid media and 300 μg/mL ampicillin sodium salt and grown at 37° C. for 24 hr followed by cell counting. For the other experiments, cultures were serially diluted into PBS and plated onto 2% agar and 1.5% agar. Plates were incubated for 16-24 h at 37° C. and counted for visible colonies.
# Overnight cultures of ampicillin-resistant E. coli were pre-treated with different concentrations of α-TSS, followed by treatment with ampicillin.
# [7] = system: MG1655 E. coli; experiment: Growth (optical density, lag time) of MG1655; format: cell-based; settings: 10 μM antisense inhibitor
# Description: MG1655 E. coli cultures were started from individual colonies from 2% LB and 1.5% agar into M9 media. They were diluted 1:10,000 from overnight culture into fresh M9 with respective treatment and grown at 37° C. with 225 rpm shaking. Clinical strains were started from individual colonies grown on cation adjusted Mueller Hinton Broth with 1.5% agar into liquid CAMHB. These were diluted 1:10,000 into CAMHB medium with respective treatment and grown at 37° C. with 225 rpm shaking. Optical density measurements were taking using a Tecan GENios at 562 nm with a bandwidth of 35 nm. Lag time was calculated using Growth Rates Made Easy (Hall et al. Mol. Biol. Evol. 31(1):232-238). […]
# [8] = system: MG1655 E. coli; experiment: Colony forming unit analysis of MG1655; format: cell-based; settings: 10 μM, 2 hours; listed as A-rpsD
# Text: The effect of α-lexA, α-fnrS, and α-rpsD on cell viability using a colony forming unit analysis was then determine.
# [9] = system: MDR Salmonella typhimurium; experiment: Growth of clinical strain MDR S. typhimurium; format: cell-based; settings: 10 μM
# Description: (§1) MG1655 E. coli cultures were started from individual colonies from 2% LB and 1.5% agar into M9 media. They were diluted 1:10,000 from overnight culture into fresh M9 with respective treatment and grown at 37° C. with 225 rpm shaking. Clinical strains were started from individual colonies grown on cation adjusted Mueller Hinton Broth with 1.5% agar into liquid CAMHB. These were diluted 1:10,000 into CAMHB medium with respective treatment and grown at 37° C. with 225 rpm shaking. Optical density measurements were taking using a Tecan GENios at 562 nm with a bandwidth of 35 nm. Lag time was calculated using Growth Rates Made Easy (Hall et al. Mol. Biol. Evol. 31(1):232-238).
# (§2) MDR E. coli was inhibited by four of the six oligomers tested (α-folC, α-ffh, α-lexA, and α-rpsD), extended-spectrum beta-lactamase (ESBL) K. pneumoniae was inhibited by two of the antisense oligomers (α-fnrS and α-rpsD), and New Delhi metallo-β-lactamase (NDM-1) K. pneumoniae was inhibited by one of the oligomers tested (α-rpsD) (FIGS. 15-16).
# [10] = system: CRE E. coli; experiment: Growth of clinical strain CRE E. coli; format: cell-based, Escherichia coli; settings: 10 μM
# Description: as §1, §2
# [11] = system: MDR E. coli; experiment: Growth of clinical strain MDR E. coli; format: cell-based; settings: 10 μM
# Description: as §1, §2
# [12] = system: ESBL K. pneumoniae; experiment: Growth of clinical strain ESBL K. pneumoniae; format: cell-based, Klebsiella pneumoniae; settings: 10 μM
# Description: as §1, §2
# [13] = system: NDM-1 K. pneumoniae; experiment: Growth of clinical strain NDM-1 K. pneumoniae; format: cell-based, Klebsiella pneumoniae; settings: 10 μM
# Description: as §1, §2
# [14] = 0.5 μM α-TSS (below MIC), 24 hr
substance,measurement,setting,value
"KFFKFFKFFK-O-gaataagggcga (antisense GAATAAGGGCGA; PNA, (KFF)3K peptide via O-linker, chemistry not fully specified) [α-YUNR]",growth of drug-resistant E. coli in presence of ampicillin,[1],no impact on cell growth
same,β-lactamase activity,[2],no impact on protein activity
"KFFKFFKFFK-O-tactcatactct (antisense TACTCATACTCT; PNA, O-linker to (KFF)3K peptide, chemistry not fully specified) [α-TSS]",re-sensitization of drug resistant E. coli to ampicillin,[1],re-sensitized drug resistant E. coli to ampicillin; also recorded: re-sensitization of drug resistant E. coli to ampicillin; also recorded: re-sensitize
same,growth in absence of ampicillin (toxicity of antisense agent),[1]; absence of ampicillin,non-toxic effect; also recorded: No inhibition
same,growth of drug-resistant E. coli in presence of ampicillin,[1],hindered cell growth; also recorded: impact growth; also recorded: significant antibiotic effect
same,minimum inhibitory concentration (MIC),"[1]; in presence of 300 μg/mL ampicillin, after overnight pretreatment with antisense agent",2.5 µM
same,bla mRNA expression,[3],did not affect bla transcript levels; also recorded: did not significantly reduce bla expression
same,slope of the transition from resistant to sensitive (Boltzman fit),[4]; 0.5 μM α-TSS (below MIC),−0.0038 ODmLμg^−1
same,ampicillin concentration up to which growth is unhindered,[4]; [14],250 µg/mL
same,ampicillin concentration with no growth,[4]; [14],550 µg/mL
same,decrease in ampicillin MIC compared to the no treatment cultures,[4]; 5 μM α-TSS (above MIC),greater than 20 fold
same,increase in negative slope compared to below MIC and no treatment,[4]; 5 μM α-TSS (above MIC),Greater than two fold
same,slope of the transition from resistant to sensitive (Boltzman fit),[4]; 5 μM α-TSS (above MIC),−0.010 OD/μg/mL
same,lowest ampicillin concentration showing a decrease in growth,"[4]; 5 μM α-TSS (above MIC), 24 hr",25 µg/mL
same,shift in ampicillin sensitivity,[4]; α-TSS at 0.5 μM (below MIC) and 5 μM (above MIC),leftward shift in ampicillin sensitivity
same,share of independent cultures showing emergence of tolerance,[5]; 2.5 μM α-TSS (MIC)/β-lactam,less than 5%
same,independent cultures showing emergence of tolerance,[5]; 5 μM α-TSS/ampicillin,None
same,colony forming units over time,[6],increased with time
"KFFKFFKFFK-O-ttgccattttct (antisense TTGCCATTTTCT; all peptide nucleic acid (PNA); (KFF)3K cell-penetrating peptide joined to the N-terminus through an O-linker) [α-rpsD, 12-mer antisense PNA centered on start codon of rpsD, O-linker to (KFF)3K]",lag time,[7],significantly increased lag time
same,growth of MG1655 E. coli cultures,[7]; 24 h,completely inhibited; also recorded: completely prevented cell growth; also recorded: Complete inhibition
same,colony forming units per milliliter after two hours of treatment,[8],zero
same,growth inhibition of MDR S. typhimurium,[9],inhibited
same,growth inhibition of CRE E. coli,[10],completely prevented growth; also recorded: inhibited
same,growth inhibition of MDR E. coli,[11],inhibited
same,growth inhibition of ESBL K. pneumoniae,[12],inhibited
same,growth inhibition of NDM-1 K. pneumoniae,[13],inhibited
